Measured values from patent US8877715B2, “Cytotoxic conjugates having neuropeptide Y receptor binding compound” (priority 2009, dated 2014).

Test system: Human MCF-7 breast carcinoma cells
Experiment: In vivo growth assay, MCF-7 xenograft (Study A and Study B)
Set-up: species or system nude mice
Conditions: for TGI: Day 15
Method: Once-weekly treatments were administered for three weeks by tail vein injection except in cases where poor drug solubility or tail necrosis necessitated intraperitoneal injections. […] Example 93 was evaluated in Study B at 55.45 mg/kg, 110.9 mg/kg and 221.8 mg/kg. Antitumor activity was assessed by tumor growth delay (“TGD”) defined as the difference in median time to endpoint tumor size in a treatment group compared to the control group, and by tumor growth inhibition (“TGI”) defined as the difference between median tumor volumes of the treatment and control groups on a study day providing a balance between measurable group responses and large group sizes. Toxicity was evaluated by body weight measurements and clinical observations.
Female nude mice (nu/nu, Harlan) were 10-11 weeks old and had body weight ranges of
The animals were fed ad libitum water (reverse osmosis, 1 ppm Cl) and NIH 31 Modified and Irradiated Lab Diet® consisting of 18.0% crude protein, 5.0% crude fat, and 5.0% crude fiber. The mice were housed on irradiated ALPHA-Dri® Bed-o′ Cobs® Laboratory Animal Bedding in static microisolators on a 12-hour light cycle at 21-22° C.
Human MCF-7 breast carcinoma cells were maintained in RPMI 1640 medium containing 100 units/mL penicillin G sodium, 100 μg/mL streptomycin sulfate, and 25 μg/mL gentamicin. The medium was supplemented with 10% heat-inactivated fetal bovine serum and 2 mM glutamine. Additional buffering was provided with 10 mM HEPES and 0.075% sodium bicarbonate. The tumor cells were cultured in tissue culture flasks in a humidified incubator at 37° C. in an atmosphere of 95% air and 5% CO2.
Three to seven days prior to cell injection, a pellet containing 17-β-estradiol (0.36 mg, 60-day release, Innovative Research of America) was implanted subcutaneously between the scapulae of each mouse.
The MCF-7 tumor cells used for implantation were harvested during log phase growth and resuspended in phosphate-buffered saline at 5×10^7 cells/mL. […] Tumors were monitored twice weekly and then daily as their volumes approached 80-120 mm^3. […] Thus, a separate study (“Study B”) was set up comprising six groups (n=10) of animals. In this study, 17 days elapsed between cell implantation and group assignment. […] Tumor size, in mm^3, was calculated from:
[formula] where w=width and l=length in mm of the MCF-7 tumor. Tumor weight may be estimated with the assumption that 1 mg is equivalent to 1 mm^3 of tumor volume.
Example 93 dosing solutions were prepared fresh in 0.1N acetic acid for each day of treatment.
Camptothecin (Lot No. 034K3648, Sigma) stock solutions were made from 60% DMA and 40% Tween 80 and stored at room temperature during the study. Dosing solutions were prepared fresh on each day of dosing by diluting the stocks 1:20 in saline.
The treatment plans are summarized in Table 3A for Study A and Table 3B for Study B.
All treatments and vehicles were given once-weekly for three doses (“qwk×3”). Group 1 mice received no gavage and no injections, and served as a control for tumor progression and estrogen toxicity. Group 2 animals received vehicle.
Each treatment dose was administered in a volume of 0.2 mL per 20 g of body weight, and was scaled to the body weight of the animal.
Median tumor growth curves of FIGS. 1-3 show median tumor volumes as a function of time. When an animal exited the study due to tumor size, the final tumor volume recorded for the animal was included with the data used to calculate the group median tumor volume at subsequent time points. Curves were truncated after 50% of animals in a group had exited the study.

With “[camptothecin-rvD-Asp-Suc-Tyr^1, Nle^17, 4Hyp^34]hNPY(1-36)-NH2 [Example 92]” the “tumor growth inhibition (TGI)” value (Study A, Day 18) was “dose-related, significantly so at 110.6 and 221.2 mg/kg, and of potential therapeutic value at the higher dose level”, the mean tumor volume (Study A, G 7: 55.3 mg/kg qwk x 3, D 1) was 124.1 mm^3 and the mean tumor volume (Study A, G 7: 55.3 mg/kg qwk x 3, D 4) was 112.3 mm^3. It also gave a mean tumor volume (Study A, G 7: 55.3 mg/kg qwk x 3, D 7) of 139.2 mm^3, a mean tumor volume (Study A, G 7: 55.3 mg/kg qwk x 3, D 11) of 168.4 mm^3 and a mean tumor volume (Study A, G 7: 55.3 mg/kg qwk x 3, D 14) of 250.9 mm^3. It also gave a mean tumor volume (Study A, G 7: 55.3 mg/kg qwk x 3, D 18) of 242.9 mm^3, a mean tumor volume (Study A, G 7: 55.3 mg/kg qwk x 3, D 21) of 262.5 mm^3 and a mean tumor volume (Study A, G 7: 55.3 mg/kg qwk x 3, D 25) of 385.9 mm^3. The mean tumor volume (Study A, G 7: 55.3 mg/kg qwk x 3, D 28) was 505.1 mm^3, the mean tumor volume (Study A, G 7: 55.3 mg/kg qwk x 3, D 32) was 532.2 mm^3 and the mean tumor volume (Study A, G 7: 55.3 mg/kg qwk x 3, D 35) was 631 mm^3. For the same substance, the mean tumor volume (Study A, G 7: 55.3 mg/kg qwk x 3, D 39) was 978 mm^3, the mean tumor volume (Study A, G 8: 110.6 mg/kg qwk x 3, D 1) was 124.1 mm^3 and the mean tumor volume (Study A, G 8: 110.6 mg/kg qwk x 3, D 4) was 130.8 mm^3. It also gave a mean tumor volume (Study A, G 8: 110.6 mg/kg qwk x 3, D 7) of 127.5 mm^3, a mean tumor volume (Study A, G 8: 110.6 mg/kg qwk x 3, D 11) of 146 mm^3 and a mean tumor volume (Study A, G 8: 110.6 mg/kg qwk x 3, D 14) of 184.6 mm^3. For the same substance, the mean tumor volume (Study A, G 8: 110.6 mg/kg qwk x 3, D 18) was 187.9 mm^3, the mean tumor volume (Study A, G 8: 110.6 mg/kg qwk x 3, D 21) was 216.2 mm^3 and the mean tumor volume (Study A, G 8: 110.6 mg/kg qwk x 3, D 25) was 337.3 mm^3. It also gave a mean tumor volume (Study A, G 8: 110.6 mg/kg qwk x 3, D 28) of 439.6 mm^3, a mean tumor volume (Study A, G 8: 110.6 mg/kg qwk x 3, D 32) of 454.8 mm^3 and a mean tumor volume (Study A, G 8: 110.6 mg/kg qwk x 3, D 35) of 550.5 mm^3. The mean tumor volume (Study A, G 8: 110.6 mg/kg qwk x 3, D 39) was 938 mm^3, the mean tumor volume (Study A, G 9: 221.2 mg/kg qwk x 3, D 1) was 124.1 mm^3 and the mean tumor volume (Study A, G 9: 221.2 mg/kg qwk x 3, D 4) was 118.3 mm^3. It also gave a mean tumor volume (Study A, G 9: 221.2 mg/kg qwk x 3, D 7) of 118.9 mm^3, a mean tumor volume (Study A, G 9: 221.2 mg/kg qwk x 3, D 11) of 118.8 mm^3 and a mean tumor volume (Study A, G 9: 221.2 mg/kg qwk x 3, D 14) of 109.4 mm^3. It also gave a mean tumor volume (Study A, G 9: 221.2 mg/kg qwk x 3, D 18) of 129.5 mm^3, a mean tumor volume (Study A, G 9: 221.2 mg/kg qwk x 3, D 21) of 150.1 mm^3 and a mean tumor volume (Study A, G 9: 221.2 mg/kg qwk x 3, D 25) of 172.2 mm^3. For the same substance, the mean tumor volume (Study A, G 9: 221.2 mg/kg qwk x 3, D 28) was 197.7 mm^3, the mean tumor volume (Study A, G 9: 221.2 mg/kg qwk x 3, D 32) was 213.8 mm^3 and the mean tumor volume (Study A, G 9: 221.2 mg/kg qwk x 3, D 35) was 301.7 mm^3. For the same substance, the mean tumor volume (Study A, G 9: 221.2 mg/kg qwk x 3, D 39) was 372 mm^3, the tumor regressions (Study A, highest dose level (222.6 or 221.2 mg/kg), TGD-evaluated sample) was 3/5 and the “tumor growth delay (TGD)” value (Study A, three dose levels, qwk x 3) was “dose-related TGD, reaching statistical significance”.
“[camptothecin-rvD-Asp-Suc-Tyr^1, Nle^17, A6c^31, 4Hyp^34]hNPY(1-36)-NH2 [Example 93]” was tested, and the “tumor growth delay (TGD)” value (Study B) was “TGD analysis did not distinguish responses to Example 93 from tumor growth in the untreated control”, the TGI (Study B, 110.9 mg/kg) was 71% and the TGI (Study B, 221.8 mg/kg) was 77%. It also gave a mean tumor volume (Study B, G 4: 55.45 mg/kg qwk x 3, D 1) of 112.9 mm^3, a mean tumor volume (Study B, G 4: 55.45 mg/kg qwk x 3, D 4) of 206.3 mm^3 and a mean tumor volume (Study B, G 4: 55.45 mg/kg qwk x 3, D 8) of 227.6 mm^3. For the same substance, the mean tumor volume (Study B, G 4: 55.45 mg/kg qwk x 3, D 12) was 236.1 mm^3, the mean tumor volume (Study B, G 4: 55.45 mg/kg qwk x 3, D 15) was 323.1 mm^3 and the mean tumor volume (Study B, G 4: 55.45 mg/kg qwk x 3, D 19) was 348.4 mm^3. For the same substance, the mean tumor volume (Study B, G 4: 55.45 mg/kg qwk x 3, D 22) was 343.3 mm^3, the mean tumor volume (Study B, G 4: 55.45 mg/kg qwk x 3, D 26) was 366.9 mm^3 and the mean tumor volume (Study B, G 4: 55.45 mg/kg qwk x 3, D 29) was 426.8 mm^3. The mean tumor volume (Study B, G 4: 55.45 mg/kg qwk x 3, D 33) was 524.5 mm^3, the mean tumor volume (Study B, G 4: 55.45 mg/kg qwk x 3, D 36) was 621.9 mm^3 and the mean tumor volume (Study B, G 4: 55.45 mg/kg qwk x 3, D 40) was 452.8 mm^3. It also gave a mean tumor volume (Study B, G 5: 110.9 mg/kg qwk x 3, D 1) of 112.8 mm^3, a mean tumor volume (Study B, G 5: 110.9 mg/kg qwk x 3, D 4) of 217.3 mm^3 and a mean tumor volume (Study B, G 5: 110.9 mg/kg qwk x 3, D 8) of 213 mm^3. The mean tumor volume (Study B, G 5: 110.9 mg/kg qwk x 3, D 12) was 186.6 mm^3, the mean tumor volume (Study B, G 5: 110.9 mg/kg qwk x 3, D 15) was 242.5 mm^3 and the mean tumor volume (Study B, G 5: 110.9 mg/kg qwk x 3, D 19) was 212.6 mm^3. The mean tumor volume (Study B, G 5: 110.9 mg/kg qwk x 3, D 22) was 207.7 mm^3, the mean tumor volume (Study B, G 5: 110.9 mg/kg qwk x 3, D 26) was 225.5 mm^3 and the mean tumor volume (Study B, G 5: 110.9 mg/kg qwk x 3, D 29) was 308.7 mm^3. For the same substance, the mean tumor volume (Study B, G 5: 110.9 mg/kg qwk x 3, D 33) was 112.3 mm^3, the mean tumor volume (Study B, G 5: 110.9 mg/kg qwk x 3, D 36) was 141.1 mm^3 and the mean tumor volume (Study B, G 5: 110.9 mg/kg qwk x 3, D 40) was 229.5 mm^3. It also gave a mean tumor volume (Study B, G 6: 221.8 mg/kg qwk x 3, D 1) of 112.7 mm^3, a mean tumor volume (Study B, G 6: 221.8 mg/kg qwk x 3, D 4) of 197.9 mm^3 and a mean tumor volume (Study B, G 6: 221.8 mg/kg qwk x 3, D 8) of 170.3 mm^3. The mean tumor volume (Study B, G 6: 221.8 mg/kg qwk x 3, D 12) was 108 mm^3, the mean tumor volume (Study B, G 6: 221.8 mg/kg qwk x 3, D 15) was 122.8 mm^3 and the mean tumor volume (Study B, G 6: 221.8 mg/kg qwk x 3, D 19) was 66.6 mm^3. The mean tumor volume (Study B, G 6: 221.8 mg/kg qwk x 3, D 22) was 66 mm^3, the mean tumor volume (Study B, G 6: 221.8 mg/kg qwk x 3, D 26) was 80.4 mm^3 and the mean tumor volume (Study B, G 6: 221.8 mg/kg qwk x 3, D 29) was 90.1 mm^3. For the same substance, the mean tumor volume (Study B, G 6: 221.8 mg/kg qwk x 3, D 33) was 109.6 mm^3, the mean tumor volume (Study B, G 6: 221.8 mg/kg qwk x 3, D 36) was 123.8 mm^3 and the mean tumor volume (Study B, G 6: 221.8 mg/kg qwk x 3, D 40) was 233.2 mm^3. The tumor growth curves (Study B, all dose levels) was “clear reduction in tumor growth at all dose levels”.
